From patent US6057315A, “Antibacterial agents” (Warner-Lambertt Company, priority 1999, dated 2000)
Converted amounts (≈) assume the structure as drawn.

Legend:
Assay in all cases: Antibacterial MIC, standard microtitration
Type in all cases: cell-based
E. Coli MC4100 = conditions: Escherichia coli, Gram negative, read-out: Minimum Inhibitory Concentrations
Protocol: (§1) The compounds of the present invention were tested against an assortment of gram positive and gram negative organisms using standard microtitration techniques (Cohen, et. al. Antimicrobial Agents Chemother. 1985, 28, 766; Heifetz, et. al. Antimicrobial Agents Chemother. 1974, 6, 124) and the results are given in Table 1.

S. aureus 29213 = conditions: Staphylococcus aureus, Gram positive, read-out: Minimum Inhibitory Concentrations
Protocol: as §1

B. subtilis RB1 = conditions: Bacillus subtilis, Gram positive, read-out: Minimum Inhibitory Concentrations
Protocol: as §1

E. coli B90 = conditions: Escherichia coli, Gram negative, read-out: Minimum Inhibitory Concentrations
Protocol: as §1

S. pyogenes C203 = conditions: Streptococcus pyogenes, Gram positive, read-out: Minimum Inhibitory Concentrations
Protocol: as §1

E. coli Tol C = conditions: Escherichia coli, read-out: Minimum Inhibitory Concentrations
Protocol: as §1

SMILES: CCCc1c(O)cc2oc3cccn3c(=O)c2c1O [Example 6, 6,8-Dihydroxy-7-propyl-9H-pyrrolo[2,1-b][1,3]benzoxazin-9-one]
- MIC (E. Coli MC4100): > 64 µg/mL
- MIC (S. aureus 29213): 2 µg/mL (≈ 7.71 µM)
- MIC (B. subtilis RB1): 4 µg/mL (≈ 15.4 µM)
- MIC (E. coli B90): 4 µg/mL (≈ 15.4 µM)
- MIC (S. pyogenes C203): 4 µg/mL (≈ 15.4 µM)
- MIC (E. coli Tol C): 2 µg/mL (≈ 7.71 µM)

SMILES: CCCc1c(O)cc2oc3cc(Cl)c(C=O)n3c(=O)c2c1O [Example 9, 2-Chloro-6,8-dihydroxy-9-oxo-7-propyl-9H-pyrrolo[2,1-b][1,3]benzoxazine-1-carboxaldehyde]
- MIC (E. Coli MC4100): > 64 µg/mL
- MIC (S. aureus 29213): 4 µg/mL (≈ 12.4 µM)
- MIC (B. subtilis RB1): 1 µg/mL (≈ 3.11 µM)
- MIC (E. coli B90): 4 µg/mL (≈ 12.4 µM)
- MIC (S. pyogenes C203): 4 µg/mL (≈ 12.4 µM)
- MIC (E. coli Tol C): 2 µg/mL (≈ 6.22 µM)

SMILES: CCCc1c(O)cc2oc3cc(Cl)c(C=NO)n3c(=O)c2c1O [Example 10, 2-Chloro-6,8-dihydroxy-9-oxo-7-propyl-9H-pyrrolo[2,1-b][1,3]benzoxazine-1-carboxaldehyde, oxime]
- MIC (E. Coli MC4100): > 64 µg/mL
- MIC (S. aureus 29213): 32 µg/mL (≈ 95 µM)
- MIC (B. subtilis RB1): 32 µg/mL (≈ 95 µM)
- MIC (E. coli B90): > 64 µg/mL
- MIC (S. pyogenes C203): 16 µg/mL (≈ 47.5 µM)
- MIC (E. coli Tol C): 8 µg/mL (≈ 23.8 µM)

SMILES: CCCc1c(OC(C)=O)cc2oc3cc(Cl)cn3c(=O)c2c1OC(C)=O [Example 13, 6,8-Bis(acetyloxy)-2-chloro-7-propyl-9H-pyrrolo [2,1-b][1,3]benzoxazin-9-one]
- MIC (E. Coli MC4100): > 64 µg/mL
- MIC (S. aureus 29213): 4 µg/mL (≈ 10.6 µM)
- MIC (B. subtilis RB1): 8 µg/mL (≈ 21.2 µM)
- MIC (E. coli B90): 64 µg/mL (≈ 169 µM)
- MIC (S. pyogenes C203): 4 µg/mL (≈ 10.6 µM)
- MIC (E. coli Tol C): 8 µg/mL (≈ 21.2 µM)
